US20090264421A1 (priority 2007, published 2009)
Where two headings read alike, the source gives them in different places.

Assays:
[1] = molecular target: T1, TrxR1 (Rattus norvegicus, UniProt O89049)
T1 sequence (O89049 1-499): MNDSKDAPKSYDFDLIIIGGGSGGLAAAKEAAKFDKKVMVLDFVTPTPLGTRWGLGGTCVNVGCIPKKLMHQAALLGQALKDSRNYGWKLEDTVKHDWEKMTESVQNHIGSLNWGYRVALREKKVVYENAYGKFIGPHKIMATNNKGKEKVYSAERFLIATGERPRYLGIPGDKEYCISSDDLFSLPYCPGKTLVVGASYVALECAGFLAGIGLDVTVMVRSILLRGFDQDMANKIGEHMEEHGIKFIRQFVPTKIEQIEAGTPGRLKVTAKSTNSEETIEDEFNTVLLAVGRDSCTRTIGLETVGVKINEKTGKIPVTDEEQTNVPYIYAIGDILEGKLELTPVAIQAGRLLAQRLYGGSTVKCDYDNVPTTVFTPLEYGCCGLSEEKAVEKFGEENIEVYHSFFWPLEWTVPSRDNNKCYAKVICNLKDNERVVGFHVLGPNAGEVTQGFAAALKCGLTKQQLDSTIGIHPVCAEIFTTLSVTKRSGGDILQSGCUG
Excerpt: Reagents: Chaetocin, β-Nicotinamide adenine dinucleotide 2′-phosphate reduced tetrasodium salt hydrate (NADPH), rat liver thioredoxin reductase, 5,5′-dithiobis(2-nitrobenzoic acid) (DTNB), oxidized glutathione (GSSG), bovine insulin, gliotoxin, thioredoxin reductase assay kit, anti-actin antibody and Celytic lysis reagent were purchased from Sigma (St. Louis, Mo.); yeast glutathione reductase and Complete Protease Inhibitor Tablets from Roche (Indianapolis, Ind.); BCA protein from Pierce (Rockford, Ill.); oxidized E. coli thioredoxin and dithiothreitol (DTT) from Promega (Madison, Wis.); verruculogen from Calbiochem (San Diego, Calif.); 4-acetamido-4′-maleimidylstilbene-2,2′-disulfonic acid (AMS) and Lipofectamine-Plus from Invitrogen (Carlsbad, Calif.); chaetomin from Alexis Biochemicals (San Diego, Calif.); and anti-thioredoxin antibody from Cell Signaling (Beverly, Mass.). HeLa cells were obtained from ATCC.
Steady-state kinetics: The 100 μL reaction consisted of 100 mM potassium phosphate (pH 7.0), 10 mM EDTA, 0.0004 U/μL thioredoxin reductase and chaetocin or other compounds as indicated. The assay was carried out in a 96-well quartz plate and the oxidation of NADPH was measured as a change in absorption at 340 nm. The initial velocities of the reaction were calculated from the decrease in the absorbance between 0 and 5 min (slope), and on a pathlength of 0.3 cm and NADPH ε=6.22 mmol^−1*cm^−1*L. The velocity versus concentration data were then analyzed using SigmaPlot's Enzyme Kinetics 1.3 program (Systat Software, San Jose, Calif.).

[2] = molecular target: T2, thioredoxin reductase (Rattus norvegicus, UniProt O89049); experiment: Thioredoxin reductase activity assay (gel-based oxidation state of thioredoxin method); type: biochemical; details: gel-based, AMS modification
T2 construct: rat liver thioredoxin reductase; purchased Sigma (St. Louis, Mo.); host or cells: rat liver
T2 sequence (O89049 1-499): T1 sequence (O89049 1-499)
Method: HeLa cells were obtained from ATCC.
Thioredoxin Reductase Activity Assay (gel-based oxidation state of thioredoxin method): Reduction of thioredoxin by thioredoxin reductase was measured by the decrease in electrophoretic mobility caused by covalent modification of thioredoxin (by AMS) when the disulfide is reduced. […] At the indicated time, a 5 μL sample was removed and immediately added to 5 μL of 30 mM AMS in TE buffer (pH 7.5). The AMS was allowed to react (15 minutes at 22° C.) with reduced thioredoxin sulfhydryl groups, then the samples were mixed with non-reducing sample buffer and were electrophoresed on 18% Tris-HCl SDS-PAGE gels. The gels were stained with Coomassie blue and bands were imaged and quantitated using a Syngene InGenius gel documentation system (Frederick, Md.).

[3] = system: A549 cells; details: for effect of NAC on reductions in colony formation caused by HDAC inhibitors: data not shown
Method: FIG. 5. […] B. Assessment of intracellular (A549 cells) and extracellular (media) chaetocin concentrations as functions of time in response to addition of 10 μM chaetocin to tissue culture media at time 0. C. […] For B and C, chaetocin concentrations were determined as described in the text using HPLC. […] Cells were exposed to all agents for 24 hours, with colonies assessed 6-7 days subsequently as described below.
FIG. 6. […] C. and D. The effects of glutathione pretreatment on intracellular (C) and extracellular (media, D) chaetocin concentration in response to treatment of A549 cells with 10 μM chaetocin for 5 min. Intracellular and extracellular chaetocin concentrations were assessed using HPLC as described in the text, with 100 μM glutathione added 5 minutes before chaetocin addition. E. “Double reciprocal” plot indicating the effects of 5 minute pretreatment with 100 […] glutathione or diluent on intracellular chaetocin concentrations resulting from exposure of A549 cells to varying concentration of chaetocin for 5 minutes. Intracellular chaetocin concentrations were assessed using HPLC as described in the text. Results shown are representative of three independent experiments.
Colony formatting assays: Briefly, 650 suspended A549 cells obtained from trypsinization of stock flasks of subconfluent cell cultures were deposited into each of triplicate sets of 35 mm tissue culture plates and allowed to adhere for 16 hours. Cells were then treated for the indicated durations (24 hours unless otherwise indicated) with diluent and/or drugs as indicated in the text and Figures. After drug removal and washing, cells were allowed to proliferate in drug-free medium for 7 to 10 days, and thereafter washed twice with serum-free phosphate buffered saline (PBS), stained with Coomassie blue, and then manually counted.

[4] = system: freshly collected sorted patient CD138+ myeloma cells; details: 24 hours
Method: FIG. 3. […] Survival indicated in A-E was assessed using a trypan blue exclusion assay, counting viable cells using a hemocytometer after 24 hour exposure to the indicated drugs and drug concentrations.
Patient bone marrow leukocytes were divided into myeloma (CD138+) and non-myeloma/normal leukocyte (CD138−) fractions employing sorting using magnetic bead technology in kit form (MACS CD138 microbeads, Miltenyi Biotech, Auburn, Calif.). Sorted cells were plated in a 96-well tissue culture plate at a concentration of 5×10^5 cells and dosed with indicated drug concentrations for 24 hours. Survival was assessed using a trypan blue exclusion assay.

[5] = system: HeLa cells; experiment: Transient thioredoxin overexpression in HeLa cells, trypan blue viability; type: cell-based, human; details: 100 nM, 24 hours
Method: A. Transient overexpression of thioredoxin attenuates chaetocin—but not doxorubicin-induced cytotoxicity in HeLa cells. Transfected cells were treated for 24 hours, cell viability assessed using a trypan blue […] assay. Inset: immunoblotting showing increased level of thioredoxin in transiently transfected HeLa cells compared to empty-vector transfected cells. B. Model indicating how chaetocin competes with thioredoxin as a substrate for thioredoxin reductase, thereby serving to attenuate reduction of the thioredoxin reductase downstream substrate and effector thioredoxin. Figure numbers corresponding to experimental data supporting indicated effects are shown.
Cell culture, transient transfections, and immunoblotting: HeLa cells were cultured in RPMI 1640 containing 5% FBS and 2 mM L-glutamine. Cells were passaged twice weekly and maintained in 37° C. in an atmosphere containing 95% air-5% CO2 (vol/vol). For transfections, 10^5 cells per well were plated in 12-well plates and were transfected with 1 μg pcDNA or pcDNA-Trx using standard Lipofectamine-Plus procedures. Transfection efficiency based on cells transfected with GFP was 80%. […] The cells were then trypsinized and manually counted in trypan blue to exclude dead cells. […] Protein was analyzed by BCA assay and lysates were electrophoresed on 15% SDS-PAGE gels and transferred to nitrocellulose. […]

[6] = system: A549 cells; type: cell-based, human
Method: FIG. 7. […] A549 cells were exposed to the indicated concentration of chaetocin for 24 hours, with addition of glutathione or diluent 30 minutes prior to chaetocin addition. Glutathione levels were assessed by spectrophotometric assay as described below. […] Cells were treated with 10 μM chaetocin for 20 minutes prior to assay, and calculated intracellular chaetocin levels were measured by HPLC with adjusted for differences in average cell volume (calculated from measured cell radii ascertained via light microscopy). Shaded area represents 1 standard deviation confidence interval, with central bar reflecting the mean relative intracellular chaetocin level. […] Cells from 4 myeloma patients were exposed to 200 μM hydrogen peroxide for 24 hours prior to assay, with trypan blue exclusion used to assess surviving cells.
Assessment of cellular oxidative stress: Cellular oxidative stress was assessed utilizing 5,6-chloromethyl-2′,7′-dichlorodihydrofluorescein diacetate or hydroethidium (Molecular Probes/Invitrogen, Carlsbad, Calif.) as cell permeable fluorescent probes and FACS analyses.

[7] = system: A549 cells; type: cell-based, human; details: glutathione added 5 minutes before 10 μM chaetocin
Excerpt: Measurement of intra- and extracellular chaetocin levels: Tumor cells treated with indicated chaetocin concentrations were washed twice with ice cold PBS, immediately solubilized in 0.5 M perchloric acid, and evaluated “real time” via HPLC using Beckman System Gold Nouveau Software with a dual pump 125 gradient pump system, 507e autosampler, 168 diode array detector, and Beckman Ultrasphere ODS column (4.6 mm×[…]×7 μm) using the following elution profile: 100% water to 100% methanol linear gradient over 40 minutes, followed by a 10 minute period of elution with 100% methanol. Quantitation was accomplished using a standard curve of peak areas derived from analogous HPLC data using varying concentrations of chaetocin.

[8] = substrate of TrxR1, NADPH oxidation

CN1C(=O)[C@]23CC4=CC=C[C@H](O)[C@H]4N2C(=O)[C@@]1(CO)SS3 [gliotoxin]
Km [1]: 16 ± 5 µM
inhibition of reduction of thioredoxin by thioredoxin reductase [2]: also inhibited the activity of thioredoxin reductase, albeit somewhat less effectively than chaetocin

CCCC(CCC)C(=O)O [valproic acid]
effect of NAC on reductions in colony formation caused by HDAC inhibitors ([3]; A549 cells): unaffected by NAC

COc1cccc2c1C(=O)c1c(O)c3c(c(O)c1C2=O)C[C@@](O)(C(=O)CO)C[C@@H]3O[C@H]1C[C@H](N)[C@H](O)[C@H](C)O1 [doxorubicin]
activity against sorted patient CD138+ myeloma cells ([4]; ex vivo, trypan blue exclusion): largely resistant
effect of transient Trx overexpression on drug-induced cell death [5]: did not appreciably rescue cells from doxorubicin-induced cell death

OO [H2O2, hydrogen peroxide]
cellular oxidative stress ([6]; 24 hours, FACS probe): increased intracellular oxidative species
sensitivity of patient myeloma cells versus matched normal leukocytes ([4]; 200 μM hydrogen peroxide, 4 patients): more sensitive to peroxide-induced cytotoxicity

CN1C(=O)[C@]2(Cc3cn([C@]45C[C@@]67SS[C@@](CO)(C(=O)N6[C@H]4Nc4ccccc45)N(C)C7=O)c4ccccc34)SS[C@@]1(CO)C(=O)N2C [chetomin, chaetomin]
Km [1, 8]: 16.1 ± 5.4 µM
inhibition of reduction of thioredoxin by thioredoxin reductase [2]: also inhibited the activity of thioredoxin reductase, albeit somewhat less effectively than chaetocin

Trx: TrxR1 native substrate thioredoxin (oxidized E. coli thioredoxin from Promega)
Km [1, 8]: 105 ± 26 µM

O=C(/C=C/c1ccc(CN(CCO)CCc2c[nH]c3ccccc23)cc1)NO [LAQ-824]
effect of NAC on reductions in colony formation caused by HDAC inhibitors ([3]; A549 cells): unaffected by NAC

CC(=O)N[C@@H](CS)C(=O)O [NAC, N-acetyl cysteine]
effect of pretreatment on chaetocin-induced oxidative stress ([6]; 10 mM NAC): attenuated chaetocin-induced oxidative stress
effect of co-treatment on chaetocin-induced reductions in colony formation ([3]; A549 cells, co-treatment with chaetocin): attenuated chaetocin-induced cytotoxicity

CC(/C=C/C(=O)NO)=C\[C@@H](C)C(=O)c1ccc(N(C)C)cc1 [tricostatin A, trichostatin A]
effect of NAC on reductions in colony formation caused by HDAC inhibitors ([3]; A549 cells): unaffected by NAC

N[C@@H](CCC(=O)N[C@@H](CS)C(=O)NCC(=O)O)C(=O)O [glutathione, reference compound]
effect of pretreatment on cellular accumulation of chaetocin [7]: attenuated the cellular accumulation of chaetocin
effect of co-treatment on chaetocin-induced reductions in colony formation [3]: attenuated chaetocin-induced cytotoxicity

CS[C@@]1(CO)C(=O)N2[C@H]3Nc4ccccc4[C@@]3([C@]34C[C@]5(SC)C(=O)N(C)[C@@](CO)(SC)C(=O)N5[C@H]3Nc3ccccc34)C[C@]2(SC)C(=O)N1C [S-methyl chaetocin]
cytotoxicity (colony formation) ([3]; 24 hour exposure, modified chaetocin disulfide bond): complete abrogation of its cytotoxicity
inhibition of reduction of thioredoxin by thioredoxin reductase [2]: inability

COc1ccc2c3c4n(c2c1)[C@H](C=C(C)C)OOC(C)(C)C[C@@H]4N1C(=O)[C@@H]2CCCN2C(=O)[C@]1(O)[C@H]3O [verruculogen, reference compound]
inhibition of reduction of thioredoxin by thioredoxin reductase [2]: inability
